Results taken from US11058688B2, “Imidazopiperazine inhibitors of transcription activating proteins” (Board of Regents, The University of Texas System, priority 2018, dated 2021).

How the values were obtained:
[1] = target: GST-CBP(1081-1197) bromodomain (Homo sapiens (Human), UniProt Q92793); experiment: CBP AlphaScreen Assay; conditions: binding to biotin-H4(1-21) Ac-K5/8/12/16 peptide
Method in brief: (§1)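 IC50 values derived by variable-slope dose-response fit between negative and DMSO control signals. AlphaScreen signal reports bromodomain association with an H4(1-21) peptide acetylated at K5, K8, K12 and K16.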

BRD4(49-170) bromodomain = BRD4(49-170) bromodomain (Homo sapiens (Human), UniProt O60885); experiment: BRD4 AlphaScreen Assay; conditions: binding to biotin-H4(1-21) Ac-K5/8/12/16 peptide
Method in brief: as §1

Sequence of GST-CBP(1081-1197) bromodomain (Q92793 1081-1197): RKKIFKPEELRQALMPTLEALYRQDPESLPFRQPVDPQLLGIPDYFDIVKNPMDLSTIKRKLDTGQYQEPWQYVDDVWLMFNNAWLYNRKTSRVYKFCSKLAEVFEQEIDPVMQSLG

SMILES	IC50 [1] [nM]	IC50 (BRD4(49-170) bromodomain) [µM]
CNC(=O)c1cc(-c2ccc3c(c2)CCCN3c2nc(C3CC3)n3c2CN(C(C)=O)CC3)ccn1 [Example 117, 4-(1-(7-acetyl-3-cyclopropyl-5,6,7,8-tetrahydroimidazo[1,5-a]pyrazin-1-yl)-1,2,3,4-tetrahydroquinolin-6-yl)-N-methylpicolinamide]	739	> 25
CC(=O)N1CCn2c(C3CC3)nc(N3CCCc4cc(-c5ccnc(C(F)(F)F)c5)ccc43)c2C1 [Example 118, 1-(3-cyclopropyl-1-(6-(2-(trifluoromethyl)pyridin-4-yl)-3,4-dihydroquinolin-1(2H)-yl)-5,6-dihydroimidazo[1,5-a]pyrazin-7(8H)-yl)ethan-1-one]	715	> 25
CC(=O)N1CCn2c(C3CC3)nc(N3CCCc4cc(-c5cccc(S(N)(=O)=O)c5)ccc43)c2C1 [Example 120, 3-(1-(7-acetyl-3-cyclopropyl-5,6,7,8-tetrahydroimidazo[1,5-a]pyrazin-1-yl)-1,2,3,4-tetrahydroquinolin-6-yl)benzenesulfonamide]	358	> 25
CC(=O)N1CCn2c(C3CC3)nc(N3CCCc4cc(-c5cnn(CCO)c5)ccc43)c2C1 [Example 121, 1-(3-cyclopropyl-1-(6-(1-(2-hydroxyethyl)-1H-pyrazol-4-yl)-3,4-dihydroquinolin-1(2H)-yl)-5,6-dihydroimidazo[1,5-a]pyrazin-7(8H)-yl)ethan-1-one]	576	> 25
CNC(=O)N1Cc2c(-c3cccc4cc(-c5cnn(C)c5)ncc34)nc(C3CC3)n2CC1C (centres unmarked) [Example 125, 3-cyclopropyl-N,6-dimethyl-1-(3-(1-methyl-1H-pyrazol-4-yl)isoquinolin-8-yl)-5,6-dihydroimidazo[1,5-a]pyrazine-7(8H)-carboxamide]	19	> 10
CNC(=O)N1Cc2c(-c3cccc4cc(-c5cnn(C)c5)ncc34)nc(C3CC3)n2C(C)C1 (centres unmarked) [Example 126, 3-cyclopropyl-N,5-dimethyl-1-(3-(1-methyl-1H-pyrazol-4-yl)isoquinolin-8-yl)-5,6-dihydroimidazo[1,5-a]pyrazine-7(8H)-carboxamide]	39	17.1

Second part, the compound after the results:

IC50 [1] [nM]	IC50 (BRD4(49-170) bromodomain) [µM]	SMILES
313	> 25	CC(=O)N1CCn2c(C3CC3)nc(N3CCCc4cc(-c5cnn(C6CCC6)c5)ccc43)c2C1 [Example 119, 1-(1-(6-(1-cyclobutyl-1H-pyrazol-4-yl)-3,4-dihydroquinolin-1(2H)-yl)-3-cyclopropyl-5,6-dihydroimidazo[1,5-a]pyrazin-7(8H)-yl)ethan-1-one]
500	> 25	CC(=O)N1CCn2c(C3CC3)nc(N3CCCc4cc(-c5cnn(CCN6CCOCC6)c5)ccc43)c2C1 [Example 122, 1-(3-cyclopropyl-1-(6-(1-(2-morpholinoethyl)-1H-pyrazol-4-yl)-3,4-dihydroquinolin-1(2H)-yl)-5,6-dihydroimidazo[1,5-a]pyrazin-7(8H)-yl)ethan-1-one]
19	> 25	CNC(=O)N1CCn2c(C3CCOCC3)nc(-c3cccc4nc(-c5cnn(C)c5)c(C(F)F)cc34)c2C1 [Example 123, 1-(3-(difluoromethyl)-2-(1-methyl-1H-pyrazol-4-yl)quinolin-5-yl)-N-methyl-3-(tetrahydro-2H-pyran-4-yl)-5,6-dihydroimidazo[1,5-a]pyrazine-7(8H)-carboxamide]
2	6.48	CNC(=O)N1CCn2c(C3CC3)nc(-c3cccc4cc(-c5cnn(C)c5)ncc34)c2C1 [Example 124, 3-cyclopropyl-N-methyl-1-(3-(1-methyl-1H-pyrazol-4-yl)isoquinolin-8-yl)-5,6-dihydroimidazo[1,5-a]pyrazine-7(8H)-carboxamide]
